The target of data set [1] is T1, Leucine-rich repeat serine/threonine-protein kinase 2 (Homo sapiens, UniProt Q5S007, G2019S). Description: Inhibition of LRRK2 G2019S mutant (unknown origin) using LRRKtide as substrate pre-incubated for 15 min and measured after 1 hrs by HTRF assay. A general note: TR-FRET usually uses a lanthanide donor and a delayed reading to cut background.
For data set [2], the system named is MDR1 (P-gp). Description: Efflux ratio of permeability across basolateral to apical side over apical to basolateral side in dog MDCKII-MDR1 cells. The format is ADME, cell-based, Canis lupus familiaris. As to conditions: MDCK-MDR1.
Data set [3] addresses T1, Leucine-rich repeat serine/threonine-protein kinase 2. The data set is described as follows: Inhibition of human LRRK2 G2019S mutant phosphorylation at S1292 in human HEK293 cells incubated for 2 hrs. The format is cell-based.
For data set [4] the target is unchanged. Description: Inhibition of phosphorylated human LRRK2 G2019S mutant at S935 in human HEK293 cells incubated for 2 hrs. The format is cell-based.
The nature of data set [5]: Stability in rat liver microsomes assessed as half life at 0.5 uM incubated up to 45 min in the presence of NADPH regenerating system by LC MS/MS analysis. Format: ADME, Microsome.
The nature of data set [6]: Stability in human liver microsomes assessed as half life at 0.5 uM incubated up to 45 min in the presence of NADPH regenerating system by LC MS/MS analysis. Format: ADME, Microsome.

T1 sequence (Q5S007 whole entry G2019S): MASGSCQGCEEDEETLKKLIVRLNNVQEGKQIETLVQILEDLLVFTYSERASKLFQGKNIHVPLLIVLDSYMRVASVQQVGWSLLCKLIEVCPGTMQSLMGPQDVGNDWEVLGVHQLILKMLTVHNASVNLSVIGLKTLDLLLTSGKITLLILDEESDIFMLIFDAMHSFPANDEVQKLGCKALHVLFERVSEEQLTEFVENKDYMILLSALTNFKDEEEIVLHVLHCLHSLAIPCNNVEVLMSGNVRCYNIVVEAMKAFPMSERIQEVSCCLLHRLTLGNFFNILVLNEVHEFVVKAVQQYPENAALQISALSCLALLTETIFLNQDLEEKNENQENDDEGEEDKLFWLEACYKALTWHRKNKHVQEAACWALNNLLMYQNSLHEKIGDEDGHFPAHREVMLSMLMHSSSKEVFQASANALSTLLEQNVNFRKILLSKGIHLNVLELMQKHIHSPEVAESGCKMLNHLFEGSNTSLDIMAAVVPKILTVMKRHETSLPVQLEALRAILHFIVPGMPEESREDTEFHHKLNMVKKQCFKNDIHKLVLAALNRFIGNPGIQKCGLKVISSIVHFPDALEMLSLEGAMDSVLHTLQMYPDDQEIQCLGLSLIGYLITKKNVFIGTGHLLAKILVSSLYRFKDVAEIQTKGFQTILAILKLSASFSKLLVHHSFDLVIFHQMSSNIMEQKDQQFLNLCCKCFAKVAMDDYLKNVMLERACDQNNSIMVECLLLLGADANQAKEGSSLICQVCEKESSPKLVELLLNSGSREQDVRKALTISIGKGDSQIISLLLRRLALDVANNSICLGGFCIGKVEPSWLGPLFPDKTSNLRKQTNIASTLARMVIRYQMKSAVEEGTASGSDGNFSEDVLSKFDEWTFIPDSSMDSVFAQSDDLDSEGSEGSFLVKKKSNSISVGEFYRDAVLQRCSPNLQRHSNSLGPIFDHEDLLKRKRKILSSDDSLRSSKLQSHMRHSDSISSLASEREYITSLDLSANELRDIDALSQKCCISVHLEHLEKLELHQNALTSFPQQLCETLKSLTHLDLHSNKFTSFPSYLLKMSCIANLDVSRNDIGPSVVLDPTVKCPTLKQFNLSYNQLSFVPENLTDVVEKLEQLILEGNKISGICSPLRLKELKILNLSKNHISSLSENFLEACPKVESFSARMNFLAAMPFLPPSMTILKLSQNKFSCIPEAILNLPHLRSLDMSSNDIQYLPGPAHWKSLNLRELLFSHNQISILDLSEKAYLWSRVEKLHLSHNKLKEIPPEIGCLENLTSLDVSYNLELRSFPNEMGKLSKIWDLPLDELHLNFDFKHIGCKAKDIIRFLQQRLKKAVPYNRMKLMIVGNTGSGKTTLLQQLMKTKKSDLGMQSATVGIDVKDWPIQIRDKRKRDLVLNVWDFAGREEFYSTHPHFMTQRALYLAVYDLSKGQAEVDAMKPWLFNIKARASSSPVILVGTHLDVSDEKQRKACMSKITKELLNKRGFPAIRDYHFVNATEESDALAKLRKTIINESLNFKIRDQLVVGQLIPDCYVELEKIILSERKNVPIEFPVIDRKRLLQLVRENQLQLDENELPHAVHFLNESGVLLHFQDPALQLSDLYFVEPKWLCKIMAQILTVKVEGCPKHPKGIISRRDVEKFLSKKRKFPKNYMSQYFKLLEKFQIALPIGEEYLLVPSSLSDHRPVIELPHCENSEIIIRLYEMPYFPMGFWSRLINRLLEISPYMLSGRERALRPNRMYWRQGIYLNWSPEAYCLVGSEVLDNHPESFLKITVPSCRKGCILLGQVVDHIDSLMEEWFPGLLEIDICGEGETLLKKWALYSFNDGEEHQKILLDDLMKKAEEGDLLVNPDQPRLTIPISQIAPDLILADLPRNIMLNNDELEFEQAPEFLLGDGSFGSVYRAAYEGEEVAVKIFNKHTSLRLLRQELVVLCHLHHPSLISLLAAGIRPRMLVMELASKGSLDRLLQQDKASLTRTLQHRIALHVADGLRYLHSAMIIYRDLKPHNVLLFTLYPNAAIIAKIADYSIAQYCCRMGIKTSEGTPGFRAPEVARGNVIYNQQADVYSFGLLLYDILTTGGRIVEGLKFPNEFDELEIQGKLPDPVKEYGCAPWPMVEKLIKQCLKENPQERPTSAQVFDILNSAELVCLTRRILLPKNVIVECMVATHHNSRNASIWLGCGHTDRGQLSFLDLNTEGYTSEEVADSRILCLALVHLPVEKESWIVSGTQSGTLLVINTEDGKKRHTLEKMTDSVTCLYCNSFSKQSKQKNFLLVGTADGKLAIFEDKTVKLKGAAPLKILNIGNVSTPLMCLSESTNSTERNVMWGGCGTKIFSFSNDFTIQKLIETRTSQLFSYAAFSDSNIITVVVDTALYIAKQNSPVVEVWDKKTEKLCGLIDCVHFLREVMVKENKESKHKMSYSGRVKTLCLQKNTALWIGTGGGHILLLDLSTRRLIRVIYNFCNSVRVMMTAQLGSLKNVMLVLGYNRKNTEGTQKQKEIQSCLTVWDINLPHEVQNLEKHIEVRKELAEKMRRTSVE

`N#Cc1ccc(C(=O)Nc2ccc3[nH]nc(C4CC4)c3c2)cc1`: the IC50 (commonly the concentration at which inhibition is half-maximal) in data set [1] was determined as 790 nM.
Regarding `Cc1n[nH]c2ccc(O[C@H]3CCc4cc(C#N)ccc43)cc12`, inhibition in data set [1] was half-maximal at 14 nM (IC50).
In turn, `O=C(Nc1ccc2[nH]nc(-c3ccoc3)c2c1)c1cnc2cnccc2c1` displayed an IC50 in data set [1] of 173 nM.
`COCc1ccc(C(=O)Nc2ccc3[nH]nc(-c4ccoc4)c3c2)cc1` returned an IC50 in data set [1] of 98 nM.
Turning to `N#Cc1ccc2c(c1)CCC[C@@H]2Oc1ccc2[nH]nc(-c3ccnc(N4CCOCC4)c3)c2c1`, in data set [1], inhibition was half-maximal at 1.4 nM (IC50).
On the same count and under the same terms, the same measure for `N#Cc1ccc2c(c1)[C@@H](Nc1ccc3[nH]nc(Br)c3c1)CCC2`: 14 nM.
Consider `Cn1ncc2cc(C(=O)Nc3ccc4[nH]nc(-c5ccoc5)c4c3)ccc21`, for which the efflux ratio (in general, a quotient of directional permeabilities that is used to spot active efflux) in data set [2] worked out at 9.2. In data set [1], this compound gave an IC50 of 13 nM.
As to `N#Cc1ccc(C(=O)Nc2ccc3[nH]nc(-c4ccoc4)c3c2)cc1`, the efflux ratio in data set [2] turned out to be 1.9. In data set [1], this compound displayed an IC50 of 41 nM.
As to `O=C(Nc1ccc2[nH]nc(-c3ccoc3)c2c1)c1nc2cnccc2s1`, the IC50 in data set [1] was found to be 74 nM.
As for `CS(=O)(=O)c1ccc(C(=O)Nc2ccc3[nH]nc(-c4ccoc4)c3c2)cc1`, it took 49 nM to reach half-maximal inhibition in data set [1] (IC50).
In turn, `N#Cc1ccc2c(c1)CCN(c1ccc3[nH]nc(C4CC4)c3c1)C2=O` came in with an IC50 in data set [1] of 5500 nM.
`CN(C)Cc1ccc(C(=O)Nc2ccc3[nH]nc(-c4ccoc4)c3c2)cc1` returned an IC50 in data set [1] of 250 nM.
Regarding `CC1=C(C(=O)Nc2ccc3[nH]nc(-c4ccccc4)c3c2)C(C)(C)n2nnnc2N1C`, the IC50 in data set [1] is 3 nM.
`N#Cc1ccc2c(c1)CC[C@H]2Nc1ccc2[nH]nc(-c3ccoc3)c2c1` came in with an IC50 in data set [1] of 63 nM.
Take `N#Cc1ccc2c(c1)CN(c1ccc3[nH]nc(C4CC4)c3c1)C2=O`: the midpoint of inhibition in data set [1], the IC50, lay at 615 nM.
Same read-out and setting: the value for `N#Cc1ccc2c(c1)C(=O)N(c1ccc3[nH]nc(C4CC4)c3c1)C2=O` was over 7600 nM.
For the compound `N#Cc1ccc2c(c1)CC[C@@H]2Oc1ccc2[nH]nc(-c3cnco3)c2c1`, the efflux ratio in data set [2] worked out at 2.2. Also, the IC50 in data set [1] came out at 0.4 nM; in data set [3] it was 8.3 nM; in data set [4] it was 27 nM. For the same compound, the half-life – broadly, how long it takes for the measured level to halve – at 0.5 µM in data set [5] is 53 min; in data set [6] it was 61 min.
Turning to `N#Cc1ccc2c(c1)CCC[C@@H]2Oc1ccc2[nH]nc(-c3cnco3)c2c1`, the efflux ratio in data set [2] came to 1.7. In addition, the IC50 in data set [1] was under 0.2 nM; in data set [3], 3.5 nM; in data set [4], 6.2 nM. Moreover, the figures for the half-life at 0.5 µM in data set [5] and in data set [6] were 42 min and 28 min, respectively.
Consider `CC1=C(C(=O)Nc2ccc3[nH]ncc3c2)Cn2nnnc2N1C`, for which the IC50 in data set [1] worked out at 35 nM.
In turn, `N#Cc1ccc2c(c1)CCC[C@@H]2Nc1ccc2[nH]nc(-c3cnco3)c2c1` came in with an IC50 in data set [1] of 0.9 nM.
For `Cc1n[nH]c2ccc(O[C@H]3CCCc4cc(C#N)ccc43)cc12`, the efflux ratio in data set [2] stood at 1.3. Also, the IC50 in data set [1] worked out at 2.8 nM; in data set [3] it was 62 nM; in data set [4] it was 137 nM. For the same compound, the values for the half-life at 0.5 µM in data set [5] and in data set [6] were 18 min and 35 min, respectively.
Compound `Cc1n[nH]c2ccc(O[C@@H]3CCc4cc(C#N)ccc43)cc12` gave an IC50 in data set [1] of 62 nM.
`N#Cc1ccc2c(c1)CC[C@@H]2Nc1ccc2[nH]nc(-c3ccoc3)c2c1`: in data set [2], the efflux ratio is 1.8. Further, the IC50 turned out to be 11 nM in data set [1], 57 nM in data set [3] and 96 nM in data set [4]. Moreover, the values for the half-life at 0.5 µM in data set [5] and in data set [6] were 54 min and 25 min, respectively.

The values above are taken from ChEMBL document CHEMBL5365501, “Brain-penetrant cyanoindane and cyanotetralin inhibitors of G2019S-LRRK2 kinase activity” (Bioorg Med Chem Lett, 2023).
